Our source for the IC50 and inhibition values is patent publication US20250340543A1, “GPR84 ANTAGONISTS AND USES THEREOF” (Liminal BioSciences Limited, priority 2021, published 2025).

Molecules are shown by their SMILES.

In the first assay the target is GPR84 (Homo sapiens (Human), UniProt Q9NQS5). Briefly: Gai biosensor BRET assay (GPR84-mediated activation of Gai, antagonist mode against agonist ZQ-16). It counts as cell-based. The note with it: HEK293 cells, 200 nmol/L GPR84 agonist ZQ-16, read-out: hGPR84 IC50. The source says: Background—The following assays can be used for determination of GPR84 activation in living HEK293 cells. […] The Gai biosensor consists of a Rluc8-tagged Gαi2 subunit, a GFP10-tagged Gγ2 subunit, and an untagged Gβ1. […] Moreover, signaling functions of GPCRs are tightly regulated by endocytosis, the targeting of receptors to endosomes and their sorting to lysosomes or recycling to the plasma membrane. […] Agonist stimulation of GPR84—Rluc8 leads to trafficking of the receptor to EEs, and ensuing increase of the donor concentration relative to the rGFP-FYVE acceptor anchored in the same cellular compartment, and thus results in an increase in BRET signal.
GPR84, sequence (Q9NQS5 whole entry): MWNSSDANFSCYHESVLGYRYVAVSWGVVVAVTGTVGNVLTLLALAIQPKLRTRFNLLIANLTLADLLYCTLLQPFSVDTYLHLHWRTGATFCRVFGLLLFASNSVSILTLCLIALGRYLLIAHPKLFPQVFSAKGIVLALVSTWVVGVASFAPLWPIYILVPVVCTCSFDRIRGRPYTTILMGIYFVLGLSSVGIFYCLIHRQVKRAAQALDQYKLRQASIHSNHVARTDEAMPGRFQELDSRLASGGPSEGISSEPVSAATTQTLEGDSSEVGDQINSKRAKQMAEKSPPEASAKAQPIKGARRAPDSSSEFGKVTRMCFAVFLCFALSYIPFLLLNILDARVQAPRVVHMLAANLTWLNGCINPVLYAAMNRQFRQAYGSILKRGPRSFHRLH
Plasmids—The cDNA clones for human GPR84 receptor, human Gαi2, Gβ1, and Gγ2 were obtained from the cDNA Resource Center (www.cdna.org). GFP10 (F64L, S147P, S202F and H231L variant of Aequorea victoria Green Fluorescent Protein) gBlocks gene fragments (Integrated DNA Technologies, IA) and linker were inserted in frame at the N-terminus of human Gγ2. Rluc8 (A55T, C124A, S130A, K136R, A143M, M185V, M253L, and S287L variant of the Renilla renformis luciferase) gBlocks gene fragment was inserted with linkers in frame in between residues 91 and 92 of Gαi2 or at the C-terminus of GPR84. The FYVE domain from human endofin (residues Q739 to K806) attached in frame at the C terminus of a humanized Renilla GFP (rGFP), were synthesized as gBlocks gene fragments.
Bioluminescence Resonance Energy Transfer (BRET) Measurement—HEK293 cells were transfected with GPR84—Rluc8 and rGFP-FYVE for the EEs trafficking biosensor or with GPR84, Gαi2—Rluc8, GFP10-Gγ2, and Gβ1 for the Gai biosensor. The following day, transiently transfected cells were seeded in 96-well white clear bottom microplates coated with poly-D-lysine and left in culture for 24 hours. Cells were washed once with Tyrode's buffer (140 mmol/L NaCl, 1 mmol/L CaCl2, 2.7 mmol/L KCl, 0.49 mmol/L MgCl2, 0.37 mmol/L NaH2PO4, 5.6 mmol/L glucose, 12 mmol/L NaHCO3, and 25 mmol/L HEPES, pH 7.5) before performing assays in Tyrode's buffer. Test compounds were incubated with cells for 5 (Gai) or 15 (EEs) minutes at 37° C. before addition of 200 nmol/L of the GPR84 agonist ZQ-16 (2-(Hexylthio)-6-hydroxy-4(3H)-pyrimidinone) for 5 minutes at room temperature (Gai) or 30 minutes at 37° C. (EEs). The Rluc8 substrate coelenterazine 400A (Prolume, Lakeside, AZ) was added at a final concentration of […] and BRET readings were collected using an Infinite M1000 microplate reader (Tecan, Morrisville, NC). BRET^2 readings between Rluc8 and GFP10 or rGFP were collected by sequential integration of the signals detected in the 370 to 450 nm (Rluc8) and 510 to 540 nm (GFP10, rGFP) windows. The BRET signal was calculated as the ratio of light emitted by acceptor (GFP10, rGFP) over the light emitted by donor (Rluc8). The values were corrected to net BRET by subtracting the background BRET signal obtained in cells transfected with Rluc8 constructs alone. Ligand-promoted net BRET values were calculated by subtracting vehicle-induced net BRET from ligand-induced net BRET.
(In general: BRET reads energy transfer from a luciferase to a nearby fluorophore.)
As a reminder, the IC50 is the concentration that gives 50% inhibition. For `COc1cc(OCC2COCCO2)cc(-c2ccc(-c3ccc(C)nc3)cc2)n1` (stereo not drawn) [Compound I-51], the IC50 was over 25 µM.
The same measure, in the same setting: the result for `Cc1cc(OCc2ccccn2)ccc1-c1cc(OCC2COCCO2)cc(Cl)n1` (stereo not drawn) [Compound I-58] reads over 12.5 µM.

Still in this assay, the particulars now being: compound tested at 2 μM (concentration code A).
As usually defined, the inhibition is the percentage by which the read-out fell short of the control. The compound `COc1cc(OCC2COc3ncccc3O2)cc(-c2ccc(-c3ccc(C)nc3)cc2C)n1` (stereo not drawn) [Compound I-57] showed an inhibition at 2 µM of 25 to 50%.

Staying with this assay, now noted: compound tested at 5 μM (concentration code C).
On to `COc1cc(OCC2COc3cccnc3O2)cc(-c2ccc(-c3ccc(C)nc3)cc2C)n1` (stereo not drawn) [Compound I-64], for which the inhibition at 5 µM was under 25%.

Staying with this assay, now noted: compound tested at 10 μM (concentration code D).
Take `Cc1cc(OCc2ccccn2)ccc1-c1cc(OCC2COc3ncccc3O2)cc(=O)[nH]1` (stereo not drawn) [Compound I-48]: the inhibition at 10 µM was in the range of 25 to 50%.
Consider `Cc1c(C#CC2CC2)cccc1Cn1c(C)cc(OC[C@H]2COCCO2)cc1=O` [Compound I-49], for which the inhibition at 10 µM fell in the range of 25 to 50%.
The same measure, in the same setting: the result for `CCc1cc(OCC2COCCO2)cc(=O)n1C(C)c1ccc(C#CC2CC2)cc1` (stereo not drawn) [Compound I-50] reads 25 to 50%.
`Cc1cc(OCC(F)(F)F)ccc1-c1cncc(OCC2CCCCO2)c1` (stereo not drawn) [Compound I-56] gave an inhibition at 10 µM of 25 to 50%.
Same read-out and setting: then `Cc1cc(OCC2COc3ccccc3O2)cc(=O)n1C(C)c1ccc(C#CC2CC2)cc1` (stereo not drawn) [Compound I-65], with under 25%; and `Cc1cc(OCC2COCCO2)cc(=O)n1C(C)c1ccc(C#CC(C)(C)C)cc1` (stereo not drawn) [Compound I-68], with under 25%; and `Cc1cc(OCC2COCCO2)cc(=O)n1C(C)c1ccc(C#CC2CC2)cn1` (stereo not drawn) [Compound I-76], with under 25%.
With `Cc1cc(OCC2COCCO2)cc(=O)n1Cc1cccc(OCc2ccccc2)c1` (stereo not drawn) [Compound I-82], the inhibition at 10 µM was under 25%.
On the same count and under the same terms, then `Cc1cc(OCC2COCCO2)cc(=O)n1C(C)c1cccc(C#CC2CC2)c1` (stereo not drawn) [Compound I-88], with under 25%; and `Cc1cc(OCC2COCCO2)cc(=O)n1Cc1cccc(C#CC(C)(C)C)c1` (stereo not drawn) [Compound I-96], with under 25%; and `Cc1cc(OCC2COCCO2)cc(=O)n1Cc1cccc(C#CCNCc2ccccc2)c1` (stereo not drawn) [Compound I-97], with under 25%.
On the same count and under the same terms, then `Cc1cc(OCC2COCCO2)cc(=O)n1C(C)c1ccc(OCC(F)(F)F)cc1` (stereo not drawn) [Compound I-99], with under 25%; and `Cc1cc(C#CC2CC2)ccc1C(C)n1c(C)cc(OCC2COCCO2)cc1=O` (stereo not drawn) [Compound I-100], with under 25%; and `Cc1cc(OCC2COc3ncccc3O2)cc(=O)n1C(C)c1ccc(C#CC2CC2)cc1` (stereo not drawn) [Compound I-106], with over 75%.

The same assay, now with this note: compound tested at 12.5 μM (concentration code E).
`Cc1c(-c2ccc(OCC(F)(F)F)cc2)n(C)c(OCC2COCCO2)cc1=O` (stereo not drawn) [Compound I-52] yielded an inhibition at 12.5 µM of 25 to 50%.
The same measure, in the same setting: then `Cc1cc(OCc2ccccn2)ccc1-c1cc(OCC2COCCO2)cc(Cl)n1` (stereo not drawn) [Compound I-58], with 25 to 50%; and `Cc1cc(OCC2COc3ccccc3O2)cc(=O)n1Cc1ccc(C#CC2CC2)cc1` (stereo not drawn) [Compound I-73], with under 25%; and `Clc1cc(OCC2COCCO2)cc(-c2ccc(OCc3ccccn3)cc2)n1` (stereo not drawn) [Compound I-107], with under 25%.

The assay is the same for the next values; noted with them: compound tested at 15 μM (concentration code F).
Compound `COc1cc(OCC2COCCO2)cc(-c2cccc(-c3ccc(C)nc3)c2)n1` (stereo not drawn) [Compound I-66] showed an inhibition at 15 µM of under 25%.
As for `Cc1cc(OCC2COCCO2)nc(OCc2ccc(C#CC3CC3)cc2)n1` (stereo not drawn) [Compound I-85], the inhibition at 15 µM is under 25%.

The assay is the same for the next values; noted with them: compound tested at 25 μM (concentration code G).
In turn, `Cc1ccc(-c2ccc(-c3nc(OCC4COCCO4)cc(=O)n3C)cc2)cn1` (stereo not drawn) [Compound I-47] returned an inhibition at 25 µM of 25 to 50%.
Compound `COc1cc(OCC2COCCO2)cc(-c2ccc(-c3ccc(C)nc3)cc2)n1` (stereo not drawn) [Compound I-51] had an inhibition at 25 µM of 25 to 50%.
Compound `FC(F)(F)COc1ccc(-c2cncc(OCC3COCCO3)c2)cc1` (stereo not drawn) [Compound I-53] had an inhibition at 25 µM of 25 to 50%.
Still for that read-out and setting: the result for `C(#CC1CC1)c1ccc(-c2cc(OCC3CCCCO3)ncn2)cc1` (stereo not drawn) [Compound I-54] reads under 25%.
Turning to `CC(C)c1cc(OCC2COCCO2)cc(OCc2ccc(C#CC3CC3)cc2)n1` (stereo not drawn) [Compound I-55], the inhibition at 25 µM is under 25%.
Still for that read-out and setting: then `[O-][n+]1cc(OCC2COCCO2)cc(-c2ccc(OCC(F)(F)F)cc2)c1` (stereo not drawn) [Compound I-59], with 25 to 50%; and `Cn1c(-c2ccc(OCC(F)(F)F)cc2)cc(OCC2COCCO2)nc1=O` (stereo not drawn) [Compound I-62], with under 25%.
On the same count and under the same terms, the result for `Cc1cc(OCC2COCCO2)cc(=O)n1Cc1cccc(OCc2ccccn2)c1` (stereo not drawn) [Compound I-63] reads under 25%; that for `Cn1c(-c2ccc(C#CC3CC3)cc2)cc(OCC2COCCO2)cc1=O` (stereo not drawn) [Compound I-67], under 25%.
For the compound `COc1cc(OCC2COCCO2)cc(-c2cc(C#CC3CC3)ccc2C)n1` (stereo not drawn) [Compound I-70], the inhibition at 25 µM is under 25%.
On the same count and under the same terms, the result for `Cc1cc(OCc2ccccn2)ccc1-c1cc(OCC2COCCO2)cc(=O)[nH]1` (stereo not drawn) [Compound I-71] reads under 25%.
Same read-out and setting: then `CCc1cc(OCC2COCCO2)cc(OCc2ccc(C#CC3CC3)cc2)n1` (stereo not drawn) [Compound I-72], with under 25%; and `COc1cc(NC(=O)C2CCCCO2)cc(-c2ccc(C#CC3CC3)cc2)n1` (stereo not drawn) [Compound I-75], with under 25%.
Still for that read-out and setting: then `O=c1nc(OCC2COCCO2)ccn1Cc1cc(OCC(F)(F)F)ccc1Br` (stereo not drawn) [Compound I-77], with under 25%; and `COc1c(C)cc(OCC2COCCO2)nc1-c1ccc(OCC(F)(F)F)cc1` (stereo not drawn) [Compound I-78], with under 25%; and `COc1cc(OCC2COCCO2)cc(-c2cc(C#CCNc3ccccc3)ccc2C)n1` (stereo not drawn) [Compound I-79], with under 25%.
`COc1ccc(CN2CCN(c3cc(OCC4COCCO4)nc(=O)n3C)CC2)cc1` (stereo not drawn) [Compound I-81] registered an inhibition at 25 µM of under 25%.
The same measure, in the same setting: the result for `COc1cc(NC(=O)C2CCCCO2)cc(-c2cccc(C#CC3CC3)c2)n1` (stereo not drawn) [Compound I-84] reads under 25%; that for `Cc1ccc(N2CCN(c3cc(OCC4COCCO4)nc(=O)n3C)CC2)cn1` (stereo not drawn) [Compound I-86], under 25%; that for `COc1cc(OCC2COCCO2)cc(-c2ccc(C#CC3CC3)cc2C)n1` (stereo not drawn) [Compound I-90], under 25%.
Still for that read-out and setting: then `Cc1ccc(-c2ccc(Cn3c(C)cc(OCC4COCCO4)cc3=O)cc2)cn1` (stereo not drawn) [Compound I-91], with under 25%.
On the same count and under the same terms, the result for `Cc1nc(OCc2ccc(C#CC3CC3)cc2)cc(OCC2COCCO2)n1` (stereo not drawn) [Compound I-92] reads under 25%; that for `Cc1ccc(-c2ccc(-c3cc(OCC4COCCO4)cc(Cl)n3)c(C)c2)cn1` (stereo not drawn) [Compound I-93], under 25%.
For the compound `COc1cc(OCC2COCCO2)nc(-c2ccc(OCC(F)(F)F)cc2)c1OC` (stereo not drawn) [Compound I-94], the inhibition at 25 µM is under 25%.
As for `COc1cc(OCC2COCCO2)cc(-c2cc(-c3ccc(C)nc3)ccc2C)n1` (stereo not drawn) [Compound I-95], the inhibition at 25 µM was under 25%.
In turn, `COc1cc(NC(=O)C2COCCO2)cc(-c2ccc(C#CC3CC3)cc2)n1` (stereo not drawn) [Compound I-98] showed an inhibition at 25 µM of under 25%.
On the same count and under the same terms, the result for `Cc1cc(C#CC2CC2)ccc1Cn1c(C)cc(OCC2COCCO2)cc1=O` (stereo not drawn) [Compound I-101] reads under 25%; that for `O=c1nc(OCC2COCCO2)cc(-c2ccc(OCC(F)(F)F)cn2)[nH]1` (stereo not drawn) [Compound I-102], under 25%.
The same measure, in the same setting: the result for `COc1nc(OCC2COCCO2)cc(-c2ccc(C#CC3CC3)cc2C)n1` (stereo not drawn) [Compound I-103] reads under 25%; that for `Cc1ccc(-c2ccc(-c3cc(OCC4COCCO4)cc(Cl)n3)cc2)cn1` (stereo not drawn) [Compound I-105], under 25%.
